Experimental data published in patent US20210059963A1, “Beta-blockers for treating and/or preventing pathological scars” (GENEPRED BIOTECHNOLOGIES, priority 2017, published 2021).

How the values were obtained:
Format in all cases: in vivo, human
[1] = system: patients with keloid scars; assay: Overall evaluation of the effect of the treatment on patient clinical conditions
Excerpt: (§1) During a clinical evaluation and treatment of subjects infected with Schistosoma mansoni in Uganda, the inventors used propranolol to lower portal blood pressure in subjects with severe liver disease (hepatic fibrosis) and splenomegaly. High portal blood pressure causes the development of oesophageal varices and variceal bleedings that are the principal cause of death in S.mansoni-infected subjects. Propranolol is currently used to reduce the risk of variceal bleedings because that drug has blocking effects on beta receptors of the nervous system, thus reducing portal pressure. Five to ten percent of the 5000 fishermen and fisher women of the study had haemorrhagic bleedings from oesophageal varices or were at risk of bleeding. In an attempt to reduce bleedings, propranolol was given to them by the oral route, one 40 mg pill per day. This molecule has little side effects and can be prescribed safely for very long periods excepted to asthmatic subjects and to patients with cardiac problems.
(§2) During the study, one of the patients had mentioned that their keloid scars were not itching any more since they were treated for high portal pressure. This prompted the inventors to check whether this effect had also been noticed by other patients under the same treatment. The data presented here, have been obtained on 30 of these patients, they were collected from 30 out of 60 patients who had received this same treatment because of a high risk of variceal bleedings. The remaining 30 patients were not available, at that time, for evaluation of the propranolol effects.
The proposed answers were: a lot of improvement, much improvement, a little improvement and no improvement. […] Only one answer per patient was accepted. Forty four (44.8%) and twenty seven (27.6%) percent of the patients estimated that the treatment had improved either much or a lot their condition, respectively.

[2] = system: patients with keloid scars; assay: Effect of propranolol on itching associated with keloids (patient report)
Excerpt: as §1, §2
(§3) Keloid Grading: Patient keloid scars were classified as low, intermediate or high severity.
(§4) Low severity corresponded to one or two scars on any part of the body, intermediate severity corresponded to various scars (including large cordons) on at least 3 different part of the body. Severe grades keloids combined extended large patches and many long and large scars on different part of the body.
(§5) Statistical analysis was performed using the SPSS software. The effects of the treatment were tested with the nonparametric Wlcoxon test performed on paired data (before and after treatment). P values were calculated for a two sided test.

[3] = system: patients with keloid scars; assay: Effect of propranolol on pain associated with keloids (patient report)
Excerpt: as §1, §2, §3, §4, §5

[4] = Global 1 + 2, 40 mg per day for 2 to 4 days, oral
[5] = Global 1 + 2, 40 mg per day for 2 to 4 days, oral, listed as propranol
[6] = Itching prior to Treatment 1, oral 40 mg per day
[7] = Itching prior to Treatment 2, oral 40 mg per day
[8] = share of patients with this effect who had Itching prior to Treatment 1
[9] = share of patients with this effect who had Itching prior to Treatment 2
[10] = Global 1 + 2, oral 40 mg per day
[11] = Pain Prior to Propranolol 1, oral 40 mg per day
[12] = Pain Prior to Propranolol 2, oral 40 mg per day
[13] = share of patients with this effect who had Pain Prior to Propranolol 1
[14] = share of patients with this effect who had Pain Prior to Propranolol 2

CC(C)NCC(O)COc1cccc2ccccc12 (centres unmarked) [propranolol]
patients estimating that the treatment had improved a lot their condition ([1]; answer: a lot of improvement, FIG. 3): 27.6%
patients estimating that the treatment had improved much their condition ([1]; answer: much improvement, FIG. 3): 44.8%
patients who felt that the treatment had clearly improved their clinical status ([1]; total of much and a lot of improvement): 72.4%
Effect of Propranolol on Itching: none, % in 1 + 2 [2, 4]: 20.0%
Effect of Propranolol on Itching: partial (marked reduction), % in 1 + 2 [2, 4]: 56.7%
Effect of Propranolol on Itching: total, % in 1 + 2 [2, 4]: 23.3%
Effect of Propranolol on Itching: none, % in 1 + 2 [2, 5]: Twenty
Effect of Propranolol on Itching: total, % in 1 + 2 [2, 5]: 23.6%
Effect of Propranolol on Itching: none, % in 1 [2, 6]: 0.0%
Effect of Propranolol on Itching: partial, % in 1 [2, 6]: 80.0%
Effect of Propranolol on Itching: total, % in 1 [2, 6]: 20.0%
Effect of Propranolol on Itching: none, % in 2 [2, 7]: 30.0%
Effect of Propranolol on Itching: partial, % in 2 [2, 7]: 45.0%
Effect of Propranolol on Itching: total, % in 2 [2, 7]: 25.0%
treated patients confirming that oral administration reduced keloid scar itching ([2]; oral administration, 30 patients): 80%
effect of the treatment on itching as a function of keloid grades ([2]; patients with all keloid grades (low, intermediate, high), FIG. 1): reduced
Effect of Propranolol on Itching: none, % in none/partial/total [2, 8]: 0%
Effect of Propranolol on Itching: partial, % in none/partial/total [2, 8]: 47.1%
Effect of Propranolol on Itching: total, % in none/partial/total [2, 8]: 28.6%
Effect of Propranolol on Itching: none, % in none/partial/total [2, 9]: 100%
Effect of Propranolol on Itching: partial, % in none/partial/total [2, 9]: 52.9%
Effect of Propranolol on Itching: total, % in none/partial/total [2, 9]: 71.4%
study subjects reporting no effects of the treatment on keloid associated pain [3]: 20%
study subjects reporting reduction of the pain [3]: 56.7%
Effects of Propranolol on Pain: Total, % in 1 + 2 [3, 10]: 29.2%
Effects of Propranolol on Pain: none, % in 1 + 2 [3, 10]: 25.0%
Effects of Propranolol on Pain: partial, % in 1 + 2 [3, 10]: 45.8%
Effects of Propranolol on Pain: Total, % in 1 [3, 11]: 35.7%
Effects of Propranolol on Pain: none, % in 1 [3, 11]: 28.6%
Effects of Propranolol on Pain: partial, % in 1 [3, 11]: 35.7%
Effects of Propranolol on Pain: Total, % in 2 [3, 12]: 20.0%
Effects of Propranolol on Pain: none, % in 2 [3, 12]: 20.0%
Effects of Propranolol on Pain: partial, % in 2 [3, 12]: 60.0%
study subjects reporting a total abolition of pain ([3]; for at least 2 to 3 days): 23.3%
effect of the treatment on pain as a function of keloid grades ([3]; patients with all keloid grades (low, intermediate, high), FIG. 2): reduced
Effects of Propranolol on Pain: Total, % in none/partial/total [3, 13]: 71.4%
Effects of Propranolol on Pain: none, % in none/partial/total [3, 13]: 66.7%
Effects of Propranolol on Pain: partial, % in none/partial/total [3, 13]: 45.5%
Effects of Propranolol on Pain: Total, % in none/partial/total [3, 14]: 28.6%
Effects of Propranolol on Pain: none, % in none/partial/total [3, 14]: 33.3%
Effects of Propranolol on Pain: partial, % in none/partial/total [3, 14]: 54.5%
